Patent US6835808B2, “Anti-heparin peptides” (Diagnostica-Stago, priority 2000, dated 2004)

System: not listed separately
Assay: Turbidity of the thromboplastin reagent containing the anti-heparin agent (OD at 630 nm)
Type: physicochemical
Details: anti-heparin agent at 5 μg/ml in thromboplastin-type reagent
Method: The turbidity should be as low as possible for an application in diagnosis, and more particularly in a thromboplastin test (PT).
This turbidity is determined by measuring the OD at 630 nm on a spectrophotometer (Uvikon 940, Kontron).
Comment: a reagent serving as a negative control, i.e. without anti-heparin agent, is of use to measure the influence of this anti-heparin agent on the turbidity of the reagent.
In the case of Pro-K4-AHA-K3-APA-K4-APA-K3 [1408-2], the “Turbidity OD 630 nm” value is reported as 0.040 OD.
For Pro-K3-AHA-K4-APA-K4-APA-K2 [1403PK], the “Turbidity OD 630 nm” value was 0.283 OD.
In the case of THC-K4-(AHA)2-K4-AHA-K4-AHA-K2 [1415-4], the “Turbidity OD 630 nm” value is reported as 0.148 OD.
For “Pro-K4-AHA-K4-APA-K3-APA-K3 [compound 1394]”, the “Turbidity OD 630 nm” value was 0.399 OD.
In the case of “PGlu-K4-(AHA)2-K4-AHA-K4-AHA-K2 [1415-5]”, the “Turbidity OD 630 nm” value is reported as 0.069 OD.
With “Pro-K4-(AHA)2-K4-AHA-K3-AHA-K2 [compound 1411]” the “Turbidity OD 630 nm” value was 0.086 OD.
For “Pro-K4-AHA-K3-APA-K3-APA-K2 [compound 1404]”, the “Turbidity OD 630 nm” value was 0.147 OD.
In the case of Thi-K4-(AHA)2-K4-AHA-K4-AHA-K2 [1415-2], the “Turbidity OD 630 nm” value is reported as 0.104 OD.
With “Pro-K4-(AHA)2-K4-AHA-K4-AHA-K2 [compound 1405]” the “Turbidity OD 630 nm” value was 0.323 OD.
In the case of Pro-K3-AHA-K4-APA-K4-APA-K2 [1403P], the “Turbidity OD 630 nm” value is reported as 0.205 OD.
In the case of “Pro-K4-AHA-K4-APA-K4-APA-K2 [compound 1401]”, the “Turbidity OD 630 nm” value is reported as 0.488 OD.
For Hyp-K4-(AHA)2-K4-AHA-K4-AHA-K2 [1415-3], the “Turbidity OD 630 nm” value was 0.134 OD.

System: UFH (unfractionated heparin, Calciparine) in plasma
Assay: Anti-heparin power in a PT (Quick time) test with thromboplastin reagent, heparinized vs nonheparinized plasma
Type: biochemical
Details: anti-heparin agent at 5 μg/ml in thromboplastin reagent; pool of normal plasma with 0 vs 1 IU/ml UFH; delta relative clotting time
Method: The aim is to analyze the performance (anti-heparin power and turbidity) of anti-heparin agents incorporated into a Diagnostica Stago thromboplastin reagent.
Analysis of the anti-heparin power: This is the ability of the anti-heparin agent to make the reagent insensitive to the heparin contained in the blood sample:
The test samples are prepared from a pool of normal plasma which may or may not be overloaded with heparin (plasma heparinized with 1 IU/ml of UFH (Calciparine 25 000 IU/ml, Sanofi)).
Comment: a reagent serving as a negative control, i.e. without anti-heparin agent, is of use to verify the heparinization of the plasma.
To determine the Quick Time, the automated device (STA Diagnostica Stago—patent EP 0325874) removes 50 μl of sample plasma, which it allows to incubate at 37° C. for 240 seconds in a cupule containing a bead; it then transfers the cupule into the measuring area and adds 100 μl of thromboplastin reagent to the sample.
The clotting time was determined in the following way: At constant viscosity, the amplitude of oscillation of the bead in the cupule (oscillation maintained using an electromagnetic field) is constant. When the viscosity increases (clotting phenomenon), the amplitude of oscillation of the bead decreases.
An algorithm uses this variation in amplitude to determine the clotting time.
The anti-heparin power is calculated in the following way: determination of the delta relative time between a heparinized and nonheparinized plasma, i.e.:
[{CT(heparinized plasma)−CT(nonheparinized plasma)}/TC(nonheparinized plasma)×100]
The anti-heparin power of the compounds according to the invention is estimated to be significant when this delta time is less than 10%.
With Pro-K4-AHA-K3-APA-K4-APA-K3 [1408-2] the “Anti-UFH power Delta time 0/1 IU/ml (in %)” value was 6.9%.
For Pro-K3-AHA-K4-APA-K4-APA-K2 [1403PK], the “Anti-UFH power Delta time 0/1 IU/ml (in %)” value was 8.7%.
For THC-K4-(AHA)2-K4-AHA-K4-AHA-K2 [1415-4], the “Anti-UFH power Delta time 0/1 IU/ml (in %)” value was 5.9%.
In the case of “Pro-K4-AHA-K4-APA-K3-APA-K3 [compound 1394]”, the “Anti-UFH power Delta time 0/1 IU/ml (in %)” value is reported as 6.4%.
With “PGlu-K4-(AHA)2-K4-AHA-K4-AHA-K2 [1415-5]” the “Anti-UFH power Delta time 0/1 IU/ml (in %)” value was 4.5%.
For “Pro-K4-(AHA)2-K4-AHA-K3-AHA-K2 [compound 1411]”, the “Anti-UFH power Delta time 0/1 IU/ml (in %)” value was 6.5%.
In the case of “Pro-K4-AHA-K3-APA-K3-APA-K2 [compound 1404]”, the “Anti-UFH power Delta time 0/1 IU/ml (in %)” value is reported as 7.6%.
In the case of Thi-K4-(AHA)2-K4-AHA-K4-AHA-K2 [1415-2], the “Anti-UFH power Delta time 0/1 IU/ml (in %)” value is reported as 5.7%.
With “Pro-K4-(AHA)2-K4-AHA-K4-AHA-K2 [compound 1405]” the “Anti-UFH power Delta time 0/1 IU/ml (in %)” value was 4.2%.
For Pro-K3-AHA-K4-APA-K4-APA-K2 [1403P], the “Anti-UFH power Delta time 0/1 IU/ml (in %)” value was 7.1%.
With “Pro-K4-AHA-K4-APA-K4-APA-K2 [compound 1401]” the “Anti-UFH power Delta time 0/1 IU/ml (in %)” value was 8.1%.
In the case of Hyp-K4-(AHA)2-K4-AHA-K4-AHA-K2 [1415-3], the “Anti-UFH power Delta time 0/1 IU/ml (in %)” value is reported as 3.4%.
